Assays:
PvNMT = biological target: T1, PvNMT (Plasmodium vivax, UniProt A5K1A2); assay: biochemical; assay type: biochemical; conditions: for SI**: enzyme selectivity calculated as HsNMT IC50/PvNMT IC50
T1 construct: Gly-Pro stays on the protein after cleavage) (N, cleaved yes); host or cells: E. coli Rosetta 2 (DE3) pRARE
From the text: NMT activity was indirectly measured through the detection of free CoA by the thiol-reactive probe 7-diethylamino-3-(4′-maleimidylphenyl)-4-methylcoumarin (CPM).
This study aimed to identify NMT is with high selectivity for the P. vivax enzyme compared with human NMTs and high potency against the different stages of the P. vivax parasite. For this purpose, a structure-guided approach was applied using previously reported NMT inhibitors as scaffolds to develop a new generation of PvNMT-targeting compounds. The NMT activity of these inhibitors was first measured using biochemical assays through the detection of free CoA by the thiol-reactive probe 7-diethylamino-3-(4′-maleimidylphenyl)-4-methylcoumarin (CPM). Their antiparasitic activity were further evaluated by measuring blood-stage parasite load and inhibition of P. vivax liver-stage schizont and hypnozoite infection. […] Cytotoxicity was assessed in the human hepatoma HepG2 cell line. Synchronized P. falciparum NF54 ring-stage parasites were used for measuring blood-stage parasite load. […] In vitro experiments were repeated at least twice. A single concentration of each inhibitor was initially used to evaluate the inhibition of P. vivax liver stage schizont and hypnozoite infection, followed by the determination of the dose-response relationship.
To measure the activity of the purified PvNMT an assay was adapted from the literature. […] Working stock solutions were made fresh adding DMSO for final concentrations of either 1% or 5% DMSO. […] The plate was incubated for 30 min at room temperature. The enzymatic reaction was initiated by adding 50 μL of reaction substrate containing 10 µM myrCoA and PfARF, as well as 8 μM CPM. Fluorescent readings were taken on a Spectra M2 plate reader (Molecular Devices) with excitation at 385 nm and emission at 485 nm. Fluorescent intensity was measured continuously in one-minute intervals for 45 minutes. Background fluorescence and noise were determined by replacing each constituent of the reaction individually with assay buffer containing 1% DMSO and values were deducted from experimental samples. The enzymatic reactions were set up with varying pHs (6.0-8.5) of the assay buffer to determine optimal reaction conditions with minimal background and off target reactions. In lieu of compound, 10 μL of 10% DMSO/H2O was added to each well. Fluorescence signal was obtained continuously for 45 min. […] IC50 calculations were calculated using Prism (GraphPad Software, Inc).

HsNMT1 = biological target: T2, HsNMT1 (Homo sapiens, UniProt P30419); assay: NMT activity assay (CPM detection of free CoA), human NMT; assay type: biochemical; conditions: Table 1; mean values of two or more determinations; read-out: HsNMT IC50 (nM)*
T2 construct: made in house
T2 sequence (P30419 1-496): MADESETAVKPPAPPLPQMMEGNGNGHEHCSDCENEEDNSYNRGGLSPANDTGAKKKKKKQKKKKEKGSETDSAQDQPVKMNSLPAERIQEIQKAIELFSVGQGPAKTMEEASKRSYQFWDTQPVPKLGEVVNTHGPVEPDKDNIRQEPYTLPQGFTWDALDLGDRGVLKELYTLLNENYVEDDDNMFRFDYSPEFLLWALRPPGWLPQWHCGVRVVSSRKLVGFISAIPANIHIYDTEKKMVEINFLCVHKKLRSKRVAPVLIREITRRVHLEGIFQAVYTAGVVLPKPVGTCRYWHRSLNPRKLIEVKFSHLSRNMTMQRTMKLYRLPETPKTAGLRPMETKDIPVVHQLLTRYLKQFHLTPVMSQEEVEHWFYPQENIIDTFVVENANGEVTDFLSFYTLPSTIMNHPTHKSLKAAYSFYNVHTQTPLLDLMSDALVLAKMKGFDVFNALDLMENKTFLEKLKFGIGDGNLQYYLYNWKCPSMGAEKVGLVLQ

[1] = Table 1, mean values of two or more determinations

T1 sequence (A5K1A2 entry or part of it): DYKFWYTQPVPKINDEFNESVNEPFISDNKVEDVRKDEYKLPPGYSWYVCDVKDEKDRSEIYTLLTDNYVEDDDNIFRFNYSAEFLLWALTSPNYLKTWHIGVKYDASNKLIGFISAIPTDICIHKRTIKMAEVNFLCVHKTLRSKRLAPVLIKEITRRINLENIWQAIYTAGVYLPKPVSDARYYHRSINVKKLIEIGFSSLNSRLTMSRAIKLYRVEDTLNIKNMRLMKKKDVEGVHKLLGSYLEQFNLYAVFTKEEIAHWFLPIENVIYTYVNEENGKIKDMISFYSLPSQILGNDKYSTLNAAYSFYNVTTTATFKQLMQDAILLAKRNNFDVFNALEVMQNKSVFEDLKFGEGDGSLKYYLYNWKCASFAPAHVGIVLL

Row | Compound | SI** (PvNMT; Table 1) | IC50 (PvNMT; [1]) [nM] | IC50 (HsNMT1) [nM] | IC50 (PvNMT; Table 2) [nM]
1 | 3-(2′-(3,5-dimethyl-1H-pyrazol-4-yl)ethoxy-4′-fluoro-[1,1′-biphenyl]-3-yl)piperazine [Compound 12p] | 62.7 | 368 | 23100 | –
2 | Cc1nn(C)c(C)c1CCOc1cccnc1-c1ccnc(N2CCNCC2)c1 [Compound 12a, 2′-(piperazin-1-yl)-3-(2-(1,3,5-trimethyl-1H-pyrazol-4-yl)ethoxy)-2,4′-bipyridine] | 146.7 | 36.8 | 5400 | –
3 | Cc1nn(C)c(C)c1CCOc1cccnc1-c1cccc(N2CCNCC2)c1 [Compound 12b, 1-(3-(3-(2-(1,3,5-trimethyl-1H-pyrazol-4-yl)ethoxy)pyridin-2-yl)phenyl)piperazine] | – | 80.2 | 20800 | –
4 | Cc1nn(C)c(C)c1CCOc1ccccc1-c1ccnc(N2CCNCC2)c1 [Compound 12c, 1-(4-(2-(2-(1,3,5-trimethyl-1H-pyrazol-4-yl)ethoxy)phenyl)pyridin-2-yl)piperazine] | 63.1 | 9.48 | 599 | –
5 | Cc1nn(C)c(C)c1CCOc1ccccc1-c1cccc(N2CCNCC2)c1 [Compound 12d, 1-(2′-(2-(1,3,5-trimethyl-1H-pyrazol-4-yl)ethoxy)-[1,1′-biphenyl]-3-yl)piperazine] | 153.4 | 48.5 | 7440 | –
6 | Cc1nn(C)c(C)c1CCOc1cc(F)ccc1-c1ccnc(N2CCNCC2)c1 [Compound 12e, 1-(4-(4-fluoro-2-(2-(1,3,5-trimethyl-1H-pyrazol-4-yl)ethoxy)phenyl)pyridin-2-yl)piperazine] | 7.8 | 15.8 | 124 | –
7 | Cc1nn(C)c(C)c1CCOc1cc(F)ccc1-c1cccc(N2CCNCC2)c1 [Compound 12f, 1-(4′-fluoro-2′-(2-(1,3,5-trimethyl-1H-pyrazol-4-yl)ethoxy)-[1,1′-biphenyl]-3-yl)piperazine] | 43.9 | 15.9 | 699 | –
8 | c1cncc(CCOc2cccnc2-c2cccc(N3CCNCC3)c2)c1 [Compound 12g, 1-(3-(3-(2-(pyridin-3-yl)ethoxy)pyridin-2-yl)phenyl)piperazine] | 152.8 | 104 | 15900 | –
9 | c1cncc(CCOc2cccnc2-c2ccnc(N3CCNCC3)c2)c1 [Compound 12h, 2′-(piperazin-1-yl)-3-(2-(pyridin-3-yl)ethoxy)-2,4′-bipyridine] | 90.9 | 441 | > 40000 | –
10 | c1cncc(CCOc2ccccc2-c2cccc(N3CCNCC3)c2)c1 [Compound 12i, 1-(2′-(2-(pyridin-3-yl)ethoxy)-[1,1′-biphenyl]-3-yl)piperazine] | – | 1540 | – | –
11 | c1cncc(CCOc2ccccc2-c2ccnc(N3CCNCC3)c2)c1 [Compound 12j, 1-(4-(2-(2-(pyridin-3-yl)ethoxy)phenyl)pyridin-2-yl)piperazine] | 220.6 | 124 | 27400 | –
12 | Fc1ccc(-c2cccc(N3CCNCC3)c2)c(OCCc2cccnc2)c1 [Compound 12k, 1-(4′-fluoro-2′-(2-(pyridin-3-yl)ethoxy)-[1,1′-biphenyl]-3-yl)piperazine] | – | 3120 | – | –
13 | Fc1ccc(-c2ccnc(N3CCNCC3)c2)c(OCCc2cccnc2)c1 [Compound 12l, 1-(4-(4-fluoro-2-(2-(pyridin-3-yl)ethoxy)phenyl)pyridin-2-yl)piperazine] | 73 | 23.4 | 1710 | –
14 | Cc1n[nH]c(C)c1CCOc1cccnc1-c1cccc(N2CCNCC2)c1 [Compound 12m, 1-(3-(3-(2-(3,5-dimethyl-1H-pyrazol-4-yl)ethoxy)pyridin-2-yl)phenyl)piperazine] | – | 12500 | – | –
15 | Cc1n[nH]c(C)c1CCOc1ccccc1-c1ccnc(N2CCNCC2)c1 [Compound 12n, 1-(4-(2-(2-(3,5-dimethyl-1H-pyrazol-4-yl)ethoxy)phenyl)pyridin-2-yl)piperazine] | 65.7 | 604 | 39700 | –
16 | Cc1n[nH]c(C)c1CCOc1cccnc1-c1ccnc(N2CCNCC2)c1 [Compound 12o] | – | 3120 | – | –
17 | Cc1nn(C)c(C)c1CCOc1ccccc1-c1cc(N2CCNCC2)ncn1 [Compound 16a, 4-(piperazin-1-yl)-6-(2-(2-(1,3,5-trimethyl-1H-pyrazol-4-yl)ethoxy)phenyl)pyrimidine] | – | 9390 | – | –
18 | c1cncc(CCOc2ccccc2-c2cc(N3CCNCC3)ncn2)c1 [Compound 16c, 4-(piperazin-1-yl)-6-(2-(2-(pyridine-3-yl)ethoxy)phenyl)pyrimidine] | – | > 40000 | – | –
19 | Fc1ccc(-c2cc(N3CCNCC3)ncn2)c(OCCc2cccnc2)c1 [Compound 16d, 4-(4-fluoro-2-(2-(pyridine-3-yl)ethoxy)phenyl)-6-(piperazin-1-yl)pyrimidine] | – | 3390 | – | –
20 | Cc1n[nH]c(C)c1CCOc1cc(F)ccc1-c1cc(N2CCNCC2)ncn1 [Compound 16e, 4-(2-(2-(3,5-dimethyl-1H-pyrazol-4-yl)ethoxy)-4-fluorophenyl)-6-(piperazin-1-yl)pyrimidine] | – | 5070 | – | –
21 | Cc1n[nH]c(C)c1CCOc1ccccc1-c1cc(N2CCNCC2)ncn1 [Compound 16f, 4-(2-(2-(3,5-dimethyl-1H-pyrazol-4-yl)ethoxy)phenyl)-6-(piperazin-1-yl)pyrimidine] | – | 14000 | – | –
22 | CN(C)CCOc1cccc(-c2ncccc2OCCc2cccnc2)c1 [Compound 26d, N,N-dimethyl-2-(3-(3-(2-(pyridin-3-yl)ethoxy)pyridin-2-yl)phenoxy)ethan-1-amine] | – | – | – | 14800
23 | CN(C)CCOc1cccc(-c2ccccc2OCCc2cccnc2)c1 [Compound 26e, N,N-dimethyl-2-((2′-(2-(pyridin-3-yl)ethoxy)-[1,1′-biphenyl]-3-yl)oxy)ethan-1-amine] | – | – | – | 12800
24 | Cc1n[nH]c(C)c1CCOc1cccnc1-c1cccc(OCCN(C)C)c1 [Compound 26g, 2-(3-(3-(2-(3,5-dimethyl-1H-pyrazol-4-yl)ethoxy)pyridin-2-yl)phenoxy)-N,N-dimethylethan-1-amine] | – | – | – | 19400
25 | Cc1n[nH]c(C)c1CCOc1ccccc1-c1cccc(OCCN(C)C)c1 [Compound 26h, 2-((2′-(2-(3,5-dimethyl-1H-pyrazol-4-yl)ethoxy)-[1,1′-biphenyl]-3-yl)oxy)-N,N-dimethylethan-1-amine] | – | – | – | 1560
26 | Cc1nn(C)c(C)c1CCOc1ccc2ccccc2c1-c1cccc(OCCN(C)C)c1 [Compound 30b, N,N-dimethyl-2-(3-(2-(2-(1,3,5-trimethyl-1H-pyrazol-4-yl)ethoxy)naphthalen-1-yl)phenoxy)ethan-1-amine] | – | – | – | 19800
27 | CN(C)CCOc1cccc(-c2c(OCCc3cccnc3)ccc3ccccc23)c1 [Compound 30d, N,N-dimethyl-2-(3-(2-(2-(pyridin-3-yl)ethoxy)naphthalen-1-yl)phenoxy)ethan-1-amine] | – | – | – | 7210
28 | Cc1n[nH]c(C)c1CCOc1ccc2ccccc2c1-c1ccnc(N2CCNCC2)c1 [Compound 30e, 1-(4-(2-(2-(3,5-dimethyl-1H-pyrazol-4-yl)ethoxy)naphthalen-1-yl)pyridin-2-yl)piperazine] | – | – | – | 2880
29 | Cc1n[nH]c(C)c1CCOc1ccc2ccccc2c1-c1cccc(OCCN(C)C)c1 [Compound 30f, 2-(3-(2-(2-(3,5-dimethyl-1H-pyrazol-4-yl)ethoxy)naphthalen-1-yl)phenoxy)-N,N-dimethylethan-1-amine] | – | – | – | 25400
